The nature of data set [1]: human clinical trial, pharmacokinetics of Tablet Formulation 6 and Tablet Formulation 7, fasted and fed. Particulars: in vivo, GM; for AUC(0-t): read-out: AUC0-24 hr.
Data set [2] is described as follows: solubility in simulated fasted-state intestinal fluid. Particulars: fassif. Type of data set: physicochemical. On the procedure:
(§1) Even in its amorphous state, the apparent solubility of neat amorphous Compound […] in simulated fasted-state intestinal fluid is 50 μg/mL after two hours of equilibration. In order to enable absorption of Compound III, solid dispersion formulations of Compound III were formulated at a drug loading less than or equal to 40% in combination with absorption-enhancing polymers and surfactants as described in U.S. Provisional Patent Application No. 61/936,019, filed Feb. 5, 2014; PCT International Patent Application Nos. PCT/US2015/014195 and PCT/US2015/014201, filed Feb. 3, 2015.

A further data set can be described thus: log D of Compound III. Type of data set: physicochemical. The following applies: pH=7. On the procedure:
as §1

[3] abbreviates: administered as Tablet Formulation 6, single dose of two tablets, Fasted.
The mark [4] stands for this setting: administered as Tablet Formulation 6, single dose of two tablets, Fed (High-Fat Meal).
Where [5] appears, read: administered as Tablet Formulation 7, single dose of two tablets, Fasted.
The mark [6] stands for this setting: administered as Tablet Formulation 7, single dose of two tablets, Fed (High-Fat Meal).
Setting [7] is: oral, administered as Tablet Formulation 6, single dose of two tablets, Fasted.
Setting [8] is: oral, administered as Tablet Formulation 6, single dose of two tablets, Fed (High-Fat Meal).
Setting [9] is: oral, administered as Tablet Formulation 7, single dose of two tablets, Fasted.
[10] abbreviates: oral, administered as Tablet Formulation 7, single dose of two tablets, Fed (High-Fat Meal).

Broadly, the AUC(0-inf) is total exposure, with the tail of the curve extrapolated. The low end stands for low exposure, the high end for high exposure. Broadly, the Cmax is the maximum level reached in the sampled fluid or tissue. In general, solubility refers to the concentration that dissolves in the medium under given conditions. The term logD denotes the decadic logarithm of the distribution of all forms, ionised or not, between an organic phase and buffer at a given pH.

Structures are written as SMILES. Like-named read-outs stand apart in the source and are kept apart here.

Regarding `CC(C)OC(=O)[C@@H](C)NP(=O)(OC[C@H]1O[C@@H](n2ccc(=O)[nH]c2=O)[C@](C)(Cl)[C@@H]1O)Oc1ccccc1` (stereo partly drawn) [Compound I, (2R)-isopropyl 2-(((((2R,3R,4R,5R)-4-chloro-5-(2,4-dioxo-3,4-dihydropyrimidin-1(2H)-yl)-3-hydroxy-4-methyltetrahydrofuran-2-yl)methoxy)(phenoxy)phosphoryl)amino)propanoate], the AUC(0-inf) in data set [1] (setting [3]) stood at 2.73 µM·h; in data set [1] (setting [4]), 3.91 µM·h; in data set [1] (setting [5]), 3.01 µM·h; in data set [1] (setting [6]) it was 4.08 µM·h. In addition, the Cmax in data set [1] (setting [3]) was 900 nM; in data set [1] (setting [4]) it was 1420 nM; in data set [1] (setting [5]), 897 nM; in data set [1] (setting [6]) it was 1740 nM. The AUC(0-t) in data set [1] (setting [3]) amounted to 2.63 µM·h; in data set [1] (setting [4]), 3.85 µM·h; in data set [1] (setting [5]) it was 2.91 µM·h; in data set [1] (setting [6]) it was 4.36 µM·h. Moreover, in data set [2] (thermodynamic from solid, after two hours of equilibration, read-out: apparent solubility of neat amorphous compound), the solubility at 2 h is 50 µg/mL.

`COC(=O)N[C@H](C(=O)N1CCC[C@H]1c1ncc(-c2cc(F)c3c(c2)O[C@@H](c2cnc(C4CC4)s2)n2c-3cc3cc(-c4cnc([C@@H]5CCCN5C(=O)[C@@H](NC(=O)OC)C(C)C)[nH]4)ccc32)[nH]1)C(C)C` [Compound II, dimethyl ((2S,2′S)-((2S,2′S)-2,2′-(5,5′-((S)-6-(2-cyclopropylthiazol-5-yl)-1-fluoro-6H-benzo[5,6][1,3]oxazino[3,4-a]indole-3,10-diyl)bis(1H-imidazole-5,2-diyl))bis(pyrrolidine-2,1-diyl))bis(3-methyl-1-oxobutane-2,1-diyl))dicarbamate]: the AUC(0-inf) worked out at 0.942 µM·h in data set [1] (setting [7]), 1.11 µM·h in data set [1] (setting [8]), 1.31 µM·h in data set [1] (setting [9]) and 1.2 µM·h in data set [1] (setting [10]). For the same compound, the Cmax in data set [1] (setting [7]) was determined as 57 nM; in data set [1] (setting [8]), 68.1 nM; in data set [1] (setting [9]), 77.2 nM; in data set [1] (setting [10]) it was 78.7 nM. In addition, the AUC(0-t) was 0.572 µM·h in data set [1] (setting [7]), 0.658 µM·h in data set [1] (setting [8]), 0.783 µM·h in data set [1] (setting [9]) and 0.716 µM·h in data set [1] (setting [10]).

On to `C=C[C@@H]1C[C@]1(NC(=O)[C@@H]1C[C@@H]2CN1C(=O)[C@H](C(C)(C)C)NC(=O)O[C@@H]1C[C@H]1CCCCCc1nc3ccc(OC)cc3nc1O2)C(=O)NS(=O)(=O)C1CC1` [Compound III, (1aR,5S,8S,10R,22aR)—N-[(1R,2S)-1-[(cyclopropylsulfonamido)carbonyl]-2-ethenylcyclopropyl]-14-methoxy-5-(2-methylpropan-2-yl)-3,6-dioxo-1,1a,3,4,5,6,9,10,18,19,20,21,22,22a-tetradecahydro-8H-7,10-methanocyclopropa[18,19][1,10,3,6]dioxadiazacyclononadecino[11,12-b]quinoxaline-8-carboxamide hydrate], for which the AUC(0-inf) in data set [1] (setting [7]) is 0.508 µM·h; in data set [1] (setting [8]), 0.628 µM·h; in data set [1] (setting [9]) it was 0.598 µM·h; in data set [1] (setting [10]), 0.733 µM·h. For the same compound, the Cmax turned out to be 25.6 nM in data set [1] (setting [7]), 44.3 nM in data set [1] (setting [8]), 31.2 nM in data set [1] (setting [9]) and 61.2 nM in data set [1] (setting [10]). In addition, the AUC(0-t) is 0.218 µM·h in data set [1] (setting [7]), 0.33 µM·h in data set [1] (setting [8]), 0.285 µM·h in data set [1] (setting [9]) and 0.38 µM·h in data set [1] (setting [10]). Besides, the solubility in data set [2] was less than 7 µg/mL. Further, in “log D of Compound III”, the logD was approximately 3.

The record behind these values is patent publication US20180228826A1, “FIXED-DOSE COMBINATIONS OF ANTIVIRAL COMPOUNDS” (priority 2015, published 2018).
